We go through two compounds from patent US9895338B1, “Cobalt-polypyridyl complex for treatment of cancer, a pharmaceutical composition and a kit comprising it” (Macau University of Science and Technology, priority 2016, dated 2018).

Data set [1] can be described thus: Body weight in mouse lung cancer xenograft model. The class given is in vivo. To be noted: IP 40 mg/kg/day, tumor-bearing mice. The text has this:
The mice were maintained under specific pathogen-free condition in a 12-h light-dark cycle. Experimental conditions were followed in accordance to the “Institutional AnimalCare and User Committee guidelines” of the Macau University of Science and Technology. Xenograft mouse model was constructed as previously described (Wong, V. K. et al., Oncotarget, 2016, 7, 9907-9924). LLC-1 Lewis lung cancer cells (1×10^6 cells) were subcutaneously injected in the right dorsal region of the mice. After tumors grew to about 100 mm^3, the mice were randomly divided into 3 groups: 1) the control group, 2) 40 mg/kg cobalt-polypyridyl complex of Formula (IV) group, and 3) 40 mg/kg cobalt-polypyridyl complex of Formula (IV) as chloride, also referenced as (IV)-Cl (water soluble form) group. The cobalt-polypyridyl complex of Formula (IV) was dissolved in 100 μL buffer (PEG400:EtOH:ddH2O=6:1:3), whereas (IV)-Cl (water soluble form) was dissolved in ddH2O. The complexes were then intraperitoneal injected in mice every day. The body weight of each mouse was recorded with the tumor volume determined by Vernier caliper using the formula of L×W^2×0.52, where L is the longest diameter of tumor and W is the shortest diameter of tumor. Mice with tumor implants were sacrificed after 10 days when the tumor size of vehicle control group reached above 1000 mm^3 due to animal ethical issue.

In data set [2] the test system is HeLa cells (cervical cancer). Kind of data set: MTT cytotoxicity assay, HeLa. The format is cell-based. To be noted: 72 h. The procedure:
(§1) All prepared cobalt-polypyridyl complexes were dissolved in DMSO at a final concentration of 50 mmol/L and stored at −20° C. before use. Cytotoxicity was assessed by using the 3-(4,5-dimethylthiazol-2-yl)-2,5-diphenyltetrazolium bromide (MTT) (5.0 mg/ml) assay as previously described (Wong, V. K. et al., Cell Death Dis, 2013, 4, e720). Briefly, 4×10^3 cells per well were seeded in 96-well plates before drug treatments. After overnight culture, the cells were then exposed to different concentrations of selected compounds (0.039-100 μmol/L) for 72 h. Cells without drug treatment were used as control. Subsequently, MTT (10 μL) solution was added to each well and incubated at 37° C. for 4 h followed by the addition of 100 μL solubilization buffer (10% SDS in 0.01 mol/L HCl) and overnight incubation. A570 nm was then determined in each well on the next day. The percentage of cell viability was calculated using the following formula: Cell viability (%)=Atreated/Acontrol×100. Data were obtained from three independent experiments. Cells include HeLa cells (cervical cancer), MCF-7 (breast cancer), H1299, H1975, A549 and LLC-1 (lung cancer), HepG2 and Hep3B (liver cancer) and LO2 (normal human hepatocytes).

For another data set, the system named is MCF-7 (breast cancer). Kind of data set: MTT cytotoxicity assay, MCF-7. The format is cell-based. Particulars: MCF-7, MTT, 72 h. As for the experimental part:
as §1
A general note: Formazan colour is commonly taken as a measure of viable cells.

The next data set relates to H1299 (lung cancer). Kind of data set: MTT cytotoxicity assay, H1299. The class given is cell-based, human. Particulars: 72 h. The procedure:
as §1

The subject of the next data set is H1975 (lung cancer). Kind of data set: MTT cytotoxicity assay, H1975. The class given is cell-based. To be noted: 72 h. As for the experimental part:
as §1

The next data set relates to A549 (lung cancer). Kind of data set: MTT cytotoxicity assay, A549. Particulars: 72 h. The class given is cell-based. As for the experimental part:
as §1

The test system of another data set is LLC-1 (lung cancer). Kind of data set: MTT cytotoxicity assay, LLC-1. The class given is cell-based. Particulars: LLC-1, MTT, 72 h. As for the experimental part:
as §1

The subject of the next data set is HepG2 (liver cancer). Kind of data set: MTT cytotoxicity assay, HepG2. The format is cell-based. Particulars: 72 h. As for the experimental part: as §1
The next data set deals with Hep 3B (liver cancer). Kind of data set: MTT cytotoxicity assay, Hep3B. The class given is cell-based. Particulars: 72 h. As for the experimental part:
as §1

Data set [3] has as its system LO2 (normal human hepatocytes). Kind of data set: MTT cytotoxicity assay, LO2. The class given is cell-based. To be noted: 72 h. As for the experimental part:
as §1

Data set [4] has as its system Taxol-sensitive MCF-7 cancer cells. Kind of data set: MTT cytotoxicity, taxol-sensitive MCF-7. To be noted: MCF-7, MTT, 72 h. The format is cell-based. As for the experimental part: as §1, with “experiments.” for “experiments. Cells include HeLa cells (cervical cancer), MCF-7 (breast cancer), H1299, H1975, A549 and LLC-1 (lung cancer), HepG2 and Hep3B (liver cancer) and LO2 (normal human hepatocytes).”

The test system of data set [5] is Taxol-resistant MCF-7 cancer cells. Kind of data set: MTT cytotoxicity, taxol-resistant MCF-7. The class given is cell-based. As for the experimental part:
as §1, with “experiments.” for “experiments. Cells include HeLa cells (cervical cancer), MCF-7 (breast cancer), H1299, H1975, A549 and LLC-1 (lung cancer), HepG2 and Hep3B (liver cancer) and LO2 (normal human hepatocytes).”
(§2) All cells were obtained from the American Type Culture Collection (Rockville, Md., USA) unless otherwise specified. Immortalized wild-type and Atg7-deficient mouse embryonic fibroblasts (MEFs) were provided by Professor Masaaki Komatsu (Juntendo University, School of Medicine, Japan). Taxol-resistant types of A549, MCF-7, HCT-8 cancer cells, cisplatin-resistant SGC7901 cancer cells were purchased from KeyGEN BioTECH, China.

The subject of data set [6] is Taxol-sensitive HCT8 cancer cells. Kind of data set: MTT cytotoxicity, taxol-sensitive HCT8. The class given is cell-based. Particulars: 72 h. As for the experimental part: as §1, with “experiments.” for “experiments. Cells include HeLa cells (cervical cancer), MCF-7 (breast cancer), H1299, H1975, A549 and LLC-1 (lung cancer), HepG2 and Hep3B (liver cancer) and LO2 (normal human hepatocytes).”

The subject of data set [7] is Taxol-resistant HCT8 cancer cells. Kind of data set: MTT cytotoxicity, taxol-resistant HCT8. The class given is cell-based. The procedure: as §1, with “experiments.” for “experiments. Cells include HeLa cells (cervical cancer), MCF-7 (breast cancer), H1299, H1975, A549 and LLC-1 (lung cancer), HepG2 and Hep3B (liver cancer) and LO2 (normal human hepatocytes).”
as §2

The subject of data set [8] is Taxol-sensitive A549 cancer cells. Kind of data set: MTT cytotoxicity, taxol-sensitive A549. The format is cell-based. To be noted: 72 h. As for the experimental part: as §1, with “experiments.” for “experiments. Cells include HeLa cells (cervical cancer), MCF-7 (breast cancer), H1299, H1975, A549 and LLC-1 (lung cancer), HepG2 and Hep3B (liver cancer) and LO2 (normal human hepatocytes).”

Data set [9] has as its system Taxol-resistant A549 cancer cells. Kind of data set: MTT cytotoxicity, taxol-resistant A549. The class given is cell-based. The procedure:
as §1, with “experiments.” for “experiments. Cells include HeLa cells (cervical cancer), MCF-7 (breast cancer), H1299, H1975, A549 and LLC-1 (lung cancer), HepG2 and Hep3B (liver cancer) and LO2 (normal human hepatocytes).”
as §2

The subject of data set [10] is cisplatin-sensitive A2780 ovarian cancer cells. Kind of data set: MTT cytotoxicity, cisplatin-sensitive A2780. The format is cell-based. Particulars: 72 h. As for the experimental part: as §1, with “experiments.” for “experiments. Cells include HeLa cells (cervical cancer), MCF-7 (breast cancer), H1299, H1975, A549 and LLC-1 (lung cancer), HepG2 and Hep3B (liver cancer) and LO2 (normal human hepatocytes).”
(§3) Cisplatin-sensitive or -resistant A2780, OV2008 and C13 cancer cells were provided by Prof. Benjamin Tsang (Department of Obstetrics and Gynecology and Department of Cellular and Molecular Medicine, University of Ottawa, Canada). HCT116 p53^+/+ and p53^−/− isogenic human colon cancer cells were provided by Professor Bert Vogelstein (Ludwig Center at Johns Hopkins, Howard Hughes Medical Institute, USA). All media were supplemented with 10% fetal bovine serum and the antibiotics penicillin (50 U/ml) and streptomycin (50 μg/ml; Invitrogen, Paisley, Scotland, UK). All cell cultures were incubated at 37° C. in a 5% humidified CO2 incubator.

Data set [11] deals with cisplatin-resistant A2780 ovarian cancer cells. Kind of data set: MTT cytotoxicity, cisplatin-resistant A2780. The format is cell-based. The procedure:
as §1, with “experiments.” for “experiments. Cells include HeLa cells (cervical cancer), MCF-7 (breast cancer), H1299, H1975, A549 and LLC-1 (lung cancer), HepG2 and Hep3B (liver cancer) and LO2 (normal human hepatocytes).”
as §3

Data set [12] deals with cisplatin-sensitive SGC-7901 gastric cancer cells. Kind of data set: MTT cytotoxicity, cisplatin-sensitive SGC-7901. The format is cell-based. Particulars: SGC-7901, MTT, 72 h. As for the experimental part: as §1, with “experiments.” for “experiments. Cells include HeLa cells (cervical cancer), MCF-7 (breast cancer), H1299, H1975, A549 and LLC-1 (lung cancer), HepG2 and Hep3B (liver cancer) and LO2 (normal human hepatocytes).”

Data set [13] deals with cisplatin-resistant SGC-7901 gastric cancer cells. Kind of data set: MTT cytotoxicity, cisplatin-resistant SGC-7901. The format is cell-based. The procedure: as §1, with “experiments.” for “experiments. Cells include HeLa cells (cervical cancer), MCF-7 (breast cancer), H1299, H1975, A549 and LLC-1 (lung cancer), HepG2 and Hep3B (liver cancer) and LO2 (normal human hepatocytes).”
as §2

The subject of data set [14] is OV2008 cervical cancer cells. Kind of data set: MTT cytotoxicity, OV2008 (cisplatin-sensitive). The class given is cell-based. To be noted: 72 h. The procedure: as §1, with “experiments.” for “experiments. Cells include HeLa cells (cervical cancer), MCF-7 (breast cancer), H1299, H1975, A549 and LLC-1 (lung cancer), HepG2 and Hep3B (liver cancer) and LO2 (normal human hepatocytes).”
as §3

Data set [15] concerns OV2008/C13 cervical cancer cells. Kind of data set: MTT cytotoxicity, OV2008/C13 (cisplatin-resistant). The class given is cell-based. As for the experimental part: as §1, with “experiments.” for “experiments. Cells include HeLa cells (cervical cancer), MCF-7 (breast cancer), H1299, H1975, A549 and LLC-1 (lung cancer), HepG2 and Hep3B (liver cancer) and LO2 (normal human hepatocytes).”
as §3

For data set [16], the system named is HCT116 p53^+/+ colon cancer cells. Kind of data set: MTT cytotoxicity, HCT116 p53+/+. Particulars: 72 h. The format is cell-based, human. As for the experimental part:
as §1, with “experiments.” for “experiments. Cells include HeLa cells (cervical cancer), MCF-7 (breast cancer), H1299, H1975, A549 and LLC-1 (lung cancer), HepG2 and Hep3B (liver cancer) and LO2 (normal human hepatocytes).”
as §3

Data set [17] concerns HCT116 p53^−/− colon cancer cells. Kind of data set: MTT cytotoxicity, HCT116 p53-/-. The class given is cell-based, human. As for the experimental part:
as §1, with “experiments.” for “experiments. Cells include HeLa cells (cervical cancer), MCF-7 (breast cancer), H1299, H1975, A549 and LLC-1 (lung cancer), HepG2 and Hep3B (liver cancer) and LO2 (normal human hepatocytes).”
as §3

Turning to `Cc1ccnc(-c2cc(C)ccn2)c1.Cc1ccnc(-c2cc(C)ccn2)c1.Cc1ccnc(-c2cc(C)ccn2)c1.[Cl-].[Cl-].[Cl-].[Co+3]` [complex (IV)-Cl], the “reduction in body weight” value in [1] is “no significant reduction in body weight”.

Consider `F[P-](F)(F)(F)(F)F.F[P-](F)(F)(F)(F)F.[Co+2].c1ccc(-c2ccccn2)nc1.c1ccc(-c2ccccn2)nc1.c1ccc(-c2ccccn2)nc1` [complex (V), [Co^II(N^N)3](PF6)2], for which the IC50 (as a rule, the concentration that gives 50% inhibition) in data set [2] came to 24.2 µM; in the data set on MCF-7 (breast cancer), 15.8 µM; in the data set on H1299 (lung cancer) it was 9.4 µM; in the data set with H1975 (lung cancer), 17 µM; in the data set with A549 (lung cancer), 26.3 µM; in the data set on LLC-1 (lung cancer) it was 17.2 µM. For the same compound, the IC50 in the data set on HepG2 (liver cancer) was determined as 13.3 µM; with Hep 3B (liver cancer), 6.92 µM; in data set [3] it was 33.6 µM; in data set [4], 13.4 µM; in data set [5] (MCF-7, MTT, 72 h) it was 16.8 µM; in data set [6], 11.4 µM. Also, the concentration for half-maximal inhibition (IC50) amounted to 7.78 µM in data set [7] (HCT8, MTT, 72 h); 29.9 µM in [8]; 7.85 µM in [9] (A549, MTT, 72 h); 28.8 µM in data set [10]; 31.6 µM in data set [11] (A2780, MTT, 72 h); 29.9 µM in data set [12]. Besides, the IC50 in data set [13] (SGC-7901, MTT, 72 h) was 29.9 µM; in data set [14] it was 18.9 µM; in data set [15] (OV2008/C13, MTT, 72 h), 14.9 µM; in data set [16], 34.3 µM; in [17] (MTT, 72 h), 29.1 µM. Also, the “Resistant Factor” value in data set [5] (MCF-7, IC50 taxol-resistant over IC50 taxol-sensitive) worked out at 1.25; in [7] (HCT8, IC50 taxol-resistant over IC50 taxol-sensitive), 0.68; in data set [9] (A549, IC50 taxol-resistant over IC50 taxol-sensitive) it was 0.26; in data set [11] (A2780, cisplatin-resistant over cisplatin-sensitive), 1.10; in data set [13] (SGC-7901, cisplatin-resistant over cisplatin-sensitive), 1.00; in data set [15] (OV2008/C13 over OV2008), 0.79. For the same compound, the “Resistant Factor” value in data set [17] (HCT116 p53^−/− over HCT116 p53^+/+) is listed as 0.85.
